# Test results: US20230149493A1, “COMPOSITIONS AND METHODS FOR TREATING COVID-19 AND SYMPTOMS THEREOF” (YUVA BIOSCIENCES, INC., priority 2021, published 2023)
# Tested on: peripheral blood mononuclear cells (PBMCs)
# Assay: XF substrate oxidation stress test (Seahorse XFp, oxygen consumption rate)
# Format: cell-based, human
# Details: for basal respiration after blocking / maximal respiration after blocking: PBMCs of patients with COVID-19, BPTES 3 μM, etomoxir 4 μM, UK5099 2 μM
# Protocol: Blood samples were obtained from the study participants. PBMCs were separated and plated on XFp eight-well polystyrene plates designed for the Seahorse XFp analyzer (Agilent Technologies, Santa Clara, Calif.) within 2 h. The Seahorse XFp analyzer (Agilent Technologies) was used to measure basal, ATP-linked, and maximal oxygen consumption rate (OCR); reserve capacity; and extracellular acidification rate (ECAR).
# OCR, a measurement of mitochondrial respiration, and ECAR, which correlates to the number of protons released from the cell with potential contribution from glycolysis and the Krebs cycle, were measured in the presence of specific mitochondrial activators and inhibitors. Oligomycin (ATP synthase blocker) was used to measure ATP turnover and to determine proton leak; the mitochondrial uncoupler carbonyl cyanide 4-[trifluoromethoxy] phenylhydrazone (FCCP) was used to measure maximum respiratory function (maximal OCR).
# Reserve capacity was calculated as maximal OCR minus the basal respiration.
# For a measurement of basal respiration, three measurements were taken before injecting ATP synthase inhibitor oligomycin at 0.75 μM (final concentration). FCCP was then injected at 0.75 μM. Finally, a mixture of rotenone and antimycin A (1 μM) was injected. Mitochondrial basal respiration, proton leak, reserve capacity, and maximal respiration were measured after correcting for nonmitochondrial respiration.
# OCR and ECAR rates were normalized to cell count for PBMCs.
structure (smiles),measurement,setting,value
N#C/C(=C\c1cn(-c2ccccc2)c2ccccc12)C(=O)O [UK5099],maximal respiration after blocking the glucose pathway,"PBMCs of healthy controls (HC), before blocking=37±25",34±5
same,basal respiration after blocking the glucose pathway,"PBMCs of healthy controls (HC), before blocking=80±33",52±28
same,basal respiration after blocking,,128±5
same,maximal respiration after blocking,,254±24
same,basal respiration after blocking the glucose pathway,"PBMCs of patients with chest infection, before blocking=200±35",195±33
same,maximal respiration after blocking the glucose pathway,"PBMCs of patients with chest infection, before blocking=589±16",558±19
CCOC(=O)[C@@]1(CCCCCCOc2ccc(Cl)cc2)CO1 [etomoxir],basal respiration after blocking,,128±2
same,maximal respiration after blocking,,255±16
